Patent publication US8952024B2, “Herbicidal pyrimidone derivatives” (E I du Pont de Nemours and Company, priority 2009, dated 2015)

Key:
Test in all cases: Test B pre-/postemergence plant response
Assay type in all cases: in vivo
[1] = test system: Surinam grass (Brachiaria decumbens); conditions: Postemergence
Method in brief: (§1)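 Response scores were assigned visually after 13 to 15 days in a greenhouse, comparing treated pots with controls on a 0–100 scale where 100 denotes complete control. Preemergence treatments went onto freshly seeded loam/sand soil; postemergence treatments onto plants 2 to 18 cm tall.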

[2] = test system: large crabgrass (Digitaria sanguinalis); conditions: Postemergence
Method in brief: as §1

[3] = test system: Italian ryegrass (Lolium multiflorum); conditions: Postemergence
Method in brief: as §1

[4] = test system: wheat (Triticum aestivum); conditions: Postemergence
Method in brief: as §1

[5] = test system: woolly cupgrass (Eriochloa villosa); conditions: Postemergence
Method in brief: as §1

[6] = test system: morningglory (Ipomoea coccinea); conditions: Postemergence
Method in brief: as §1

[7] = test system: downy bromegrass (Bromus tectorum); conditions: for Plant response rating, Bromegrass, Downy: Postemergence
Method in brief: as §1

[8] = test system: blackgrass (Alopecurus myosuroides); conditions: for Plant response rating, Blackgrass: Postemergence
Method in brief: as §1

wild oat (Avena fatua) = conditions: Postemergence
Method in brief: as §1

kochia (Kochia scoparia) = conditions: Postemergence
Method in brief: as §1

[9] = test system: cocklebur (Xanthium strumarium); conditions: Postemergence
Method in brief: as §1

[10] = test system: bermudagrass (Cynodon dactylon); conditions: for Plant response rating, Bermudagrass: Postemergence
Method in brief: as §1

[11] = test system: ragweed (common ragweed, Ambrosia elatior); conditions: Postemergence
Method in brief: as §1

[12] = 31 g ai/ha, 0 to 100 scale (0 no effect, 100 complete control)
[13] = 62 g ai/ha, scale 0 to 100 (0 no effect, 100 complete control)
[14] = 250 g ai/ha, scale 0 to 100 (0 no effect, 100 complete control), 13 to 15 days
[15] = 125 g ai/ha, scale 0 to 100 (0 no effect, 100 complete control)
[16] = 62 g ai/ha, postemergence, 0 is no effect, 100 is complete control, 13 to 15 days
[17] = 125 g ai/ha, scale 0 (no effect) to 100 (complete control), 13 to 15 days

O=C1CCCC(O)=C1C(=O)c1cnc(-c2ccc(F)cc2)n(C2CCCCC2)c1=O [Compound 197]
Plant response rating, Surinam Grass [1, 12]: 50 | Plant response rating, Surinam Grass [1, 13]: 55 | Plant response rating, Surinam Grass [1, 14]: 70 | Plant response rating, Crabgrass, Large [2, 12]: 75 | Plant response rating, Crabgrass, Large [2, 13]: 85 | Plant response rating, Crabgrass, Large [2, 15]: 98 | Plant response rating, Crabgrass, Large [2, 14]: 100 | Plant response rating, Ryegrass, Italian [3, 12]: 0 | Plant response rating, Ryegrass, Italian [3, 13]: 0 | Plant response rating, Ryegrass, Italian [3, 14]: 35 | Plant response rating, Wheat [4, 12]: 0 | Plant response rating, Wheat [4, 13]: 0 | Plant response rating, Wheat [4, 14]: 40 | Plant response rating, Cupgrass, Woolly [5, 12]: 70 | Plant response rating, Cupgrass, Woolly [5, 13]: 85 | Plant response rating, Cupgrass, Woolly [5, 15]: 90 | Plant response rating, Cupgrass, Woolly [5, 14]: 98 | Plant response rating, Morningglory [6, 12]: 98 | Plant response rating, Morningglory [6, 13]: 100 | Plant response rating, Morningglory [6, 15]: 100 | Plant response rating, Morningglory [6, 14]: 100 | Plant response rating, Bromegrass, Downy [7, 12]: 15 | Plant response rating, Bromegrass, Downy [7, 13]: 15 | Plant response rating, Bromegrass, Downy [7, 15]: 30 | Plant response rating, Bromegrass, Downy [7, 14]: 30 | Plant response rating, Blackgrass [8, 12]: 0 | Plant response rating, Blackgrass [8, 13]: 10 | Plant response rating, Blackgrass [8, 15]: 10 | Plant response rating, Blackgrass [8, 14]: 45 | Plant response rating, Oat, Wild (wild oat (Avena fatua); [12]): 40 | Plant response rating, Oat, Wild (wild oat (Avena fatua); [13]): 40 | Plant response rating, Oat, Wild (wild oat (Avena fatua); [14]): 85 | Plant response rating, Kochia (kochia (Kochia scoparia); [12]): 65 | Plant response rating, Kochia (kochia (Kochia scoparia); [13]): 80 | Plant response rating, Kochia (kochia (Kochia scoparia); [15]): 95 | Plant response rating, Kochia (kochia (Kochia scoparia); [14]): 98 | Plant response rating, Cocklebur [9, 12]: 80 | Plant response rating, Cocklebur [9, 13]: 100 | Plant response rating, Cocklebur [9, 15]: 100 | Plant response rating, Cocklebur [9, 14]: 100 | Plant response rating, Bermudagrass [10, 12]: 95 | Plant response rating, Bermudagrass [10, 13]: 100 | Plant response rating, Bermudagrass [10, 15]: 100 | Plant response rating, Bermudagrass [10, 14]: 100

CCCn1c(-c2cccc(Cl)c2)ncc(C(=O)C2=C(O)CCCC2=O)c1=O [Compound 190]
Plant response rating, Surinam Grass [1, 12]: 60 | Plant response rating, Surinam Grass [1, 15]: 75 | Plant response rating, Surinam Grass [1, 14]: 90 | Plant response rating, Crabgrass, Large [2, 12]: 60 | Plant response rating, Crabgrass, Large [2, 15]: 80 | Plant response rating, Crabgrass, Large [2, 14]: 90 | Plant response rating, Ryegrass, Italian [3, 12]: 0 | Plant response rating, Ryegrass, Italian [3, 15]: 20 | Plant response rating, Ryegrass, Italian [3, 14]: 30 | Plant response rating, Wheat [4, 12]: 0 | Plant response rating, Wheat [4, 15]: 30 | Plant response rating, Wheat [4, 14]: 30 | Plant response rating, Cupgrass, Woolly [5, 12]: 75 | Plant response rating, Cupgrass, Woolly [5, 15]: 80 | Plant response rating, Cupgrass, Woolly [5, 14]: 85 | Plant response rating, Morningglory [6, 12]: 40 | Plant response rating, Morningglory [6, 15]: 85 | Plant response rating, Morningglory [6, 14]: 100 | Bromegrass, Downy plant response rating (0 to 100 scale) [7, 16]: 30 | Plant response rating, Bromegrass, Downy [7, 12]: 5 | Plant response rating, Bromegrass, Downy [7, 15]: 35 | Plant response rating, Bromegrass, Downy [7, 14]: 35 | Blackgrass plant response rating (0 to 100 scale) [8, 16]: 30 | Plant response rating, Blackgrass [8, 12]: 5 | Plant response rating, Blackgrass [8, 15]: 35 | Plant response rating, Blackgrass [8, 14]: 40 | Plant response rating, Oat, Wild (wild oat (Avena fatua); [12]): 0 | Plant response rating, Oat, Wild (wild oat (Avena fatua); [15]): 40 | Plant response rating, Oat, Wild (wild oat (Avena fatua); [14]): 50 | Plant response rating, Kochia (kochia (Kochia scoparia); [12]): 0 | Plant response rating, Kochia (kochia (Kochia scoparia); [15]): 98 | Plant response rating, Kochia (kochia (Kochia scoparia); [14]): 98 | Plant response rating, Cocklebur [9, 12]: 40 | Plant response rating, Cocklebur [9, 15]: 95 | Plant response rating, Cocklebur [9, 14]: 100 | Bermudagrass plant response rating (0 to 100 scale) [10, 16]: 100 | Plant response rating, Bermudagrass [10, 12]: 98 | Plant response rating, Bermudagrass [10, 15]: 100 | Plant response rating, Bermudagrass [10, 14]: 100

COCCCn1c(-c2cccc(F)c2)ncc(C(=O)C2=C(O)C3CCC(C3)C2=O)c1=O (stereo not drawn) [Compound 238]
Plant response rating, Surinam Grass [1, 12]: 95 | Plant response rating, Surinam Grass [1, 13]: 100 | Plant response rating, Surinam Grass [1, 17]: 100 | Plant response rating, Surinam Grass [1, 14]: 100 | Plant response rating, Crabgrass, Large [2, 12]: 95 | Plant response rating, Crabgrass, Large [2, 13]: 98 | Plant response rating, Crabgrass, Large [2, 17]: 98 | Plant response rating, Crabgrass, Large [2, 14]: 98 | Plant response rating, Ryegrass, Italian [3, 12]: 20 | Plant response rating, Ryegrass, Italian [3, 13]: 25 | Plant response rating, Ryegrass, Italian [3, 17]: 25 | Plant response rating, Ryegrass, Italian [3, 14]: 70 | Plant response rating, Wheat [4, 12]: 40 | Plant response rating, Wheat [4, 13]: 45 | Plant response rating, Wheat [4, 17]: 80 | Plant response rating, Wheat [4, 14]: 80 | Plant response rating, Cupgrass, Woolly [5, 12]: 95 | Plant response rating, Cupgrass, Woolly [5, 13]: 100 | Plant response rating, Cupgrass, Woolly [5, 17]: 100 | Plant response rating, Cupgrass, Woolly [5, 14]: 100 | Plant response rating, Morningglory [6, 17]: 100 | Plant response rating, Morningglory [6, 14]: 100 | Plant response rating, Bromegrass, Downy [7, 12]: 10 | Plant response rating, Bromegrass, Downy [7, 13]: 40 | Plant response rating, Bromegrass, Downy [7, 17]: 50 | Plant response rating, Bromegrass, Downy [7, 14]: 85 | Plant response rating, Blackgrass [8, 12]: 40 | Plant response rating, Blackgrass [8, 13]: 60 | Plant response rating, Blackgrass [8, 17]: 60 | Plant response rating, Blackgrass [8, 14]: 70 | Plant response rating, Oat, Wild (wild oat (Avena fatua); [12]): 30 | Plant response rating, Oat, Wild (wild oat (Avena fatua); [13]): 35 | Plant response rating, Oat, Wild (wild oat (Avena fatua); [17]): 50 | Plant response rating, Oat, Wild (wild oat (Avena fatua); [14]): 60 | Plant response rating, Kochia (kochia (Kochia scoparia); [12]): 90 | Plant response rating, Kochia (kochia (Kochia scoparia); [13]): 98 | Plant response rating, Kochia (kochia (Kochia scoparia); [17]): 100 | Plant response rating, Kochia (kochia (Kochia scoparia); [14]): 100 | Plant response rating, Bermudagrass [10, 12]: 95 | Plant response rating, Bermudagrass [10, 13]: 98 | Plant response rating, Bermudagrass [10, 17]: 100 | Plant response rating, Bermudagrass [10, 14]: 100 | Plant response rating, Ragweed [11, 12]: 100 | Plant response rating, Ragweed [11, 13]: 100 | Plant response rating, Ragweed [11, 17]: 100 | Plant response rating, Ragweed [11, 14]: 100
